Measurements reported in article PMC9602792, “Preclinical evaluation of the epithelial sodium channel inhibitor AZD5634 and implications on human translation” (American Journal of Physiology - Lung Cellular and …, 2022).

How the values were obtained:
people with CF = tested on: people with CF; parameters: method as in PMID 35227647; settings: single-dose inhalation, NCT02950805; cited from earlier work
ENaC = molecular target: T1, ENaC (Homo sapiens, UniProt P37088+P51168+P51170); assay: Ussing chamber short-circuit current (Isc) in normal HBEC ALI cultures from healthy donors; assay type: cell-based
T1 construct: host or cells: primary normal human bronchial epithelial cells, ALI culture
T1 sequence (P37088 1-669): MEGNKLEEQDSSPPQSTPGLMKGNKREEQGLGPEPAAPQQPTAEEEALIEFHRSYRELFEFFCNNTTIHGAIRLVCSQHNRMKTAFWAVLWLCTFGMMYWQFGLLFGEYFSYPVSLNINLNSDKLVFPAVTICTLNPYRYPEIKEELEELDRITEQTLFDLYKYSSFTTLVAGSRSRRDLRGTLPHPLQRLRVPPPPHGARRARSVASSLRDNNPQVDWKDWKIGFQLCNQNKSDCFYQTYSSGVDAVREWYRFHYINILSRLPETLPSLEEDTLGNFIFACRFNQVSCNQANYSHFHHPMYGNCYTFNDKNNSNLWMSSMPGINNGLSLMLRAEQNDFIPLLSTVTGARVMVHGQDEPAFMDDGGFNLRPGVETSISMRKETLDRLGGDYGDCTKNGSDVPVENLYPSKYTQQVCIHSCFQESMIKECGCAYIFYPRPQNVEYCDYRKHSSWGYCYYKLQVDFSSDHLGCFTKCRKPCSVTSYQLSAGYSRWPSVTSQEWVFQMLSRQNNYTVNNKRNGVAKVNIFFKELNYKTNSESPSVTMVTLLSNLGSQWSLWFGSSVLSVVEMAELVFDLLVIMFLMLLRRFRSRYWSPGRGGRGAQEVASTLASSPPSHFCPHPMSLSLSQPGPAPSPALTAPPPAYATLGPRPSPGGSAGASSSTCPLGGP
T1 sequence (P51168 1-640): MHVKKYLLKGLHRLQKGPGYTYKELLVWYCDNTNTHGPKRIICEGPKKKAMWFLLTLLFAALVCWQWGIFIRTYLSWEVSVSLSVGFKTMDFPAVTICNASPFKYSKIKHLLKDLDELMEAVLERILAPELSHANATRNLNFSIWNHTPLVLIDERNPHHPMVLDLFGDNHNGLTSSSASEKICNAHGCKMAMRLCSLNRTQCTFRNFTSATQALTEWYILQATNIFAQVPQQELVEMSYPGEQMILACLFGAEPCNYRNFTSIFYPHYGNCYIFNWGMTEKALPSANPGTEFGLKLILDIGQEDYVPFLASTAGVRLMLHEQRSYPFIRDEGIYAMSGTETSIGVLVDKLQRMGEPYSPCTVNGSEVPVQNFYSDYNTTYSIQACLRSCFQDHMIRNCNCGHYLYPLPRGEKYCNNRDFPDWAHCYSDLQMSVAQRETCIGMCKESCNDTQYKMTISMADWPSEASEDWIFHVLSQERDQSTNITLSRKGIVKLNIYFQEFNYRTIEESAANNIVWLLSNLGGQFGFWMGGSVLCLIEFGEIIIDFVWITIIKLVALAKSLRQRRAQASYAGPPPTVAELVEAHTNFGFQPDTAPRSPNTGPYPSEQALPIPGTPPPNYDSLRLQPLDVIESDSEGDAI
T1 sequence (P51170 1-649): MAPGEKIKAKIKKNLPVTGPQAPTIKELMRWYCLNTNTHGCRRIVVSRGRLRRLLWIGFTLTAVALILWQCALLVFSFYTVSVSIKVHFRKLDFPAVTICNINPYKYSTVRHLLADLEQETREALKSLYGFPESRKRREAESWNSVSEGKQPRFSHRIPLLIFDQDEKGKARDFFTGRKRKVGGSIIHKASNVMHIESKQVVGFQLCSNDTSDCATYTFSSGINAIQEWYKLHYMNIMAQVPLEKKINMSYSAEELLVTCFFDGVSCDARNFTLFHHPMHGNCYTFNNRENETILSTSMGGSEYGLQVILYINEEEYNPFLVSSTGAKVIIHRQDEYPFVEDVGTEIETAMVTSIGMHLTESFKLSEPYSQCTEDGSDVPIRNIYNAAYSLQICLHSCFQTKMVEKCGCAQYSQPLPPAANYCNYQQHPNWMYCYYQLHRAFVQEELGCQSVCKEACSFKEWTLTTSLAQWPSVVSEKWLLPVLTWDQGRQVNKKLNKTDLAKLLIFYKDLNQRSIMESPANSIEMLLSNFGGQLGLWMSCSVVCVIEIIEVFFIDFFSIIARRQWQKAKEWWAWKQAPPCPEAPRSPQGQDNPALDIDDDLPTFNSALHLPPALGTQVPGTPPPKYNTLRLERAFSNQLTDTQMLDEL
Description: Normal human bronchial epithelial cell (HBEC) cultures from healthy donors were procured from MatTek Corporation (Ashland, MA), grown at an ALI on Transwell permeable supports (0.4 µm polycarbonate membrane, 12 mm insert, and Costar Corning), and used to test the in vitro potency of AZD5634. Using the same protocol, sheep ALI cultures were prepared from primary bronchial epithelial cells (native sheep tracheas were obtained from Öströö Sheep Farm, Sweden, and internally processed at AstraZeneca R&D, Gothenburg, Sweden) to validate AZD5634 potency at sheep ENaC. Experiments were performed using modified Ussing chambers containing carboxygenated Krebs solution (95% O2-5% CO2) at 37°C. Cell layers were allowed to equilibrate before being voltage-clamped at 0 mV, and then briefly clamped at 10 mV to assess transepithelial electrical resistance.
All data are presented as means ± SE. Values of n refer to the number of cultures used in each group as appropriate. For normally distributed data, paired or unpaired Student’s t tests were used. For data that were not normally distributed, Mann–Whitney U test and Wilcoxon-matched pairs test were used. For comparisons of multiple groups, ANOVA tests were used followed by Tukey–Kramer multiple comparisons test (parametric) or ANOVA followed by Kruskal–Wallis test (nonparametric). For experiments using primary HBECs, a minimum of four different donors supplied cultures for each experiment. For the Ussing chamber data, unconstrained concentration–response curves were fitted using an in-house Microsoft Excel add-in package by nonlinear, four parameter, logistic regression analysis. From these curves, pEC50 and Emax values were taken from which mean values were calculated.

- additional effect on Isc when benzamil was added (ENaC; benzamil 10 µM on final response plateau): No additional effect
- potency of inhibition of amiloride-sensitive current (Isc) relative to amiloride (ENaC; non-CF and CF airway cells): 2 to 3 logs
- IC50 (ENaC; normal HBEC ALI cultures, normalized to 10 µM benzamil = 100%, read-out: IC50 for decrease in Isc (EC50 in Fig. 1A legend)): 3.8 nM
- potency shift versus benzamil (ENaC; normal HBEC cultures, Isc): 1 log unit
Substance: AZD5634
- effect on MCC (people with CF): did not demonstrate augmented MCC
